11 compounds from patent US11464802B2, “3-substituted piperidine compounds for Cbl-b inhibition, and use thereof” (Nurix Therapeutics, Inc., priority 2019, dated 2022) can be followed below.

One assay addresses Cbl-b (Homo sapiens (Human), UniProt Q13191). Description: Cbl-b displacement assay (Cbl-b inhibition assay), TR-FRET probe displacement, Biological Example 1. It counts as binding. The protocol: Candidate compounds were evaluated for their ability to bind and inhibit Cbl-b, an E3 ubiquitin-protein ligase, as evidenced by their ability to displace a fluorophore-labeled probe (Example 46) bound to Cbl-b.
The ability of candidate compounds to displace a known inhibitor and thereby inhibit Cbl-b activity was measured by monitoring the interaction of Cbl-b with a fluorophore-labeled probe in the presence of the candidate compound. A truncated variant of Cbl-b (UniProt number Q13191; SEQ ID NO:1) containing an Avitag at its N-terminus was co-expressed with BirA biotin ligase and purified using a standard protocol (see Dou et al., Nature Structural and Molecular Biology 8: 982-987, 2013; Avidity LLC).
Fluorescently-labeled inhibitor probe was synthesized and tagged with BODIPY FL (Example 46). Cbl-b displacement assays were performed in a 384-well plate at room temperature in a 10 μL reaction volume by pre-incubating 0.5 nM Cbl-b or 0.125 nM Cbl-b (final concentration, indicated as “High” and “Low”, respectively) in an assay buffer containing 20 mM HEPES pH 7.5, 150 mM NaCl, 0.01% Triton X-100, 0.01% BSA, and 0.5 mM TCEP in the presence of a candidate compound in 1% DMSO (final concentration) for 1 hour. After incubation in the presence of the candidate compound, the plate was incubated for an additional 1 hour in the presence of an approximate EC40 binding saturation consisting of 150 nM fluorescently-labeled inhibitor probe and 2 nM Streptavidin-Terbium (Cisbio) (final concentrations). Following the 1 hour incubation, the plates were read for TR-FRET signal at 520/620 nM using an Envision plate reader (Perkin Elmer).
A general note: TR-FRET usually uses a lanthanide donor and a delayed reading to cut background.

Assay [1] has as its system primary human total T-cells. The assay can be described thus: Primary human total T-cell activation: CD25 surface staining, Biological Example 2. It counts as cell-based. The note with it: 48 hours, fold change over baseline; for fold induction at 0.3 µM: inhibitor 0.3 μM; for fold induction at 1 µM: inhibitor 1 μM; for fold induction at 3 µM: inhibitor 3 μM.
The subject of assay [2] is primary human total T-cells. Description: Primary human total T-cell activation: IL-2 secretion, Biological Example 2. Conditions: 48 hours, fold change over baseline; for fold induction at 0.3 µM: inhibitor 0.3 μM; for fold induction at 1 µM: inhibitor 1 μM; for fold induction at 3 µM: inhibitor 3 μM. The format is cell-based.
Setting [3] is: 0.5 nM Cbl-b final concentration (High), read-out: Cbl-b activity IC50 (High).
Setting [4] is: Cbl-b concentration (High or Low) not given, read-out: IC50 values in the Cbl-b inhibition assay of Biological Example 1.
Where [5] appears, read: anti-CD3/anti-CD28 co-stimulation.
[6] abbreviates: anti-CD3/anti-CD28 co-stimulation, read-out: CD25 staining CD3/CD28 1 μM.
Setting [7] is: anti-CD3 alone, read-out: CD25 staining CD3 1 μM.
Setting [8] is: anti-CD3/anti-CD28 co-stimulation, read-out: IL-2 secretion CD3/CD28 1 μM.
Setting [9] is: anti-CD3 alone, read-out: IL-2 secretion CD3 1 μM.
The mark [10] stands for this setting: 0.125 nM Cbl-b final concentration (Low), read-out: Cbl-b activity IC50 (Low).

Like-named read-outs stand apart in the source and are kept apart here.

Cbl-b, sequence (Q13191 36-427): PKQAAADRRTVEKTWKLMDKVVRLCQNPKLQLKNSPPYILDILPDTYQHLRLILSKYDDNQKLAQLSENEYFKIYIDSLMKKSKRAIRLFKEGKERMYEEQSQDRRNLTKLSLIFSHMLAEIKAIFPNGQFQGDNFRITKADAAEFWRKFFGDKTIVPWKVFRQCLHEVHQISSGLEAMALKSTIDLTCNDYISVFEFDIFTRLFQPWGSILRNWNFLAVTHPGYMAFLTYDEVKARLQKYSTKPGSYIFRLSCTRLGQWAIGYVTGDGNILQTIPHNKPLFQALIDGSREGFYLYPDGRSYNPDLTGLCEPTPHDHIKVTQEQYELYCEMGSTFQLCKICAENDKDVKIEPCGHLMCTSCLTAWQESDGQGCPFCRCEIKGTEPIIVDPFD

For the compound `C[C@@H]1CN(Cc2cc3c(c(C(F)(F)F)c2)CN(c2cc(C4(Cc5nncn5C)COC4)cc(C4CC4)n2)C3=O)CCC1(F)F` [Compound 30, (R)-2-(6-cyclopropyl-4-(3-((4-methyl-4H-1,2,4-triazol-3-yl)methyl)oxetan-3-yl)pyridin-2-yl)-6-((4,4-difluoro-3-methylpiperidin-1-yl)methyl)-4-(trifluoromethyl)isoindolin-1-one], the IC50 on Cbl-b (setting [3]) and on Cbl-b (setting [4]) was 5.1 to 100 nM throughout. The fold induction at 0.3 µM in assay [1] (setting [5]) is less than 1.24; in assay [2] (setting [5]), greater than 15. For the same compound, the fold induction at 1 µM in assay [1] (setting [6]) was less than 1.24; in assay [1] (setting [7]) it was less than 1.04; in assay [2] (setting [8]) it was greater than 15; in assay [2] (setting [9]), 0.34 to 0.66. The fold induction at 3 µM in assay [1] (anti-CD3 alone) was less than 1.04; in assay [2] (anti-CD3 alone), 0.34 to 0.66.

`C[C@H]1CCCN(Cc2cc3c(c(C(F)(F)F)c2)CN(c2cccc(C4(Cc5nncn5C(F)F)COC4)c2)C3=O)C1` [Compound 36, 2-[3-(3-{[4-(difluoromethyl)-1,2,4-triazol-3-yl]methyl}oxetan-3-yl)phenyl]-6-{[(3S)-3-methylpiperidin-1-yl]methyl}-4-(trifluoromethyl)-3H-isoindol-1-one]: the IC50 at Cbl-b (setting [10]) and on Cbl-b (setting [4]) was less than 1 nM each time. Moreover, the fold induction at 0.3 µM in assay [1] (setting [5]) was greater than 1.39; in assay [2] (setting [5]), greater than 15. The fold induction at 1 µM was greater than 1.39 in assay [1] (setting [6]), greater than 1.14 in assay [1] (setting [7]), greater than 15 in assay [2] (setting [8]) and greater than 0.66 in assay [2] (setting [9]). For the same compound, the figures for the fold induction at 3 µM in assay [1] (anti-CD3 alone) and in assay [2] (anti-CD3 alone) were greater than 1.14 and greater than 0.66, respectively.

With `C[C@H]1CCCN(Cc2cc3c(c(C4CC4)n2)CN(c2cccc(C4(Cc5nncn5C(F)F)COC4)c2)C3=O)C1` [Compound 37, 4-cyclopropyl-2-[3-(3-{[4-(difluoromethyl)-1,2,4-triazol-3-yl]methyl}oxetan-3-yl)phenyl]-6-{[(3S)-3-methylpiperidin-1-yl]methyl}-3H-pyrrolo[3,4-c]pyridin-1-one], the IC50 on Cbl-b (setting [10]) and on Cbl-b (setting [4]) was 1 to 5 nM each time. Also, the fold induction at 0.3 µM in assay [1] (setting [5]) was greater than 1.39; in assay [2] (setting [5]), greater than 15. The fold induction at 1 µM in assay [1] (setting [6]) was greater than 1.39; in assay [1] (setting [7]) it was greater than 1.14; in assay [2] (setting [8]), greater than 15; in assay [2] (setting [9]), greater than 0.66. Besides, the fold induction at 3 µM in assay [1] (anti-CD3 alone) was greater than 1.14; in assay [2] (anti-CD3 alone) it was greater than 0.66.

With `Cn1cnnc1CC1(c2cccc(N3Cc4c(cc(CN5CC(C(F)(F)F)C[C@H](C(F)(F)F)C5)cc4C(F)(F)F)C3=O)c2)COC1` (stereo partly drawn) [Compound 21, cis-6-{[3,5-bis(trifluoromethyl)piperidin-1-yl]methyl}-2-(3-{3-[(4-methyl-1,2,4-triazol-3-yl)methyl]oxetan-3-yl}phenyl)-4-(trifluoromethyl)-3H-isoindol-1-one], the IC50 at Cbl-b (setting [10]) and at Cbl-b (setting [4]) was 5.1 to 100 nM throughout. For the same compound, the fold induction at 0.3 µM in assay [1] (setting [5]) is 1.25 to 1.39; in assay [2] (setting [5]), less than 10. For the same compound, the fold induction at 1 µM in assay [1] (setting [6]) is 1.25 to 1.39; in assay [1] (setting [7]), less than 1.04; in assay [2] (setting [8]), less than 10; in assay [2] (setting [9]) it was less than 0.33. Also, the fold induction at 3 µM was less than 1.04 in assay [1] (anti-CD3 alone) and less than 0.33 in assay [2] (anti-CD3 alone).

Take `C[C@@H]1C[C@H](C)CN(Cc2cc3c(c(C(F)(F)F)c2)CN(c2cccc(-c4c(-c5nncn5C)cnn4C)c2)C3=O)C1` [Compound 45, 6-((cis-3,5-dimethylpiperidin-1-yl)methyl)-2-(3-(1-methyl-4-(4-methyl-4H-1,2,4-triazol-3-yl)-1H-pyrazol-5-yl)phenyl)-4-(trifluoromethyl)isoindolin-1-one]: the IC50 at Cbl-b (setting [3]) and on Cbl-b (setting [4]) was 1 to 5 nM each time. Moreover, the fold induction at 0.3 µM in assay [1] (setting [5]) was in the range of 1.25 to 1.39; in assay [2] (setting [5]) it was 11 to 15. Besides, the fold induction at 1 µM in assay [1] (setting [6]) is less than 1.24; in assay [1] (setting [7]), less than 1.04; in assay [2] (setting [8]), 11 to 15; in assay [2] (setting [9]) it was 0.34 to 0.66. For the same compound, the fold induction at 3 µM in assay [1] (anti-CD3 alone) was less than 1.04; in assay [2] (anti-CD3 alone), 0.34 to 0.66.

For `C[C@@H]1CN(Cc2cc3c(c(C4CC4)n2)CN(c2cccc(C4(Cc5nncn5C(F)F)COC4)c2)C3=O)CCC1(F)F` [Compound 38, 4-cyclopropyl-6-{[(3R)-4,4-difluoro-3-methylpiperidin-1-yl]methyl}-2-[3-(3-{[4-(difluoromethyl)-1,2,4-triazol-3-yl]methyl}oxetan-3-yl)phenyl]-3H-pyrrolo[3,4-c]pyridin-1-one], the IC50 at Cbl-b (setting [10]) and on Cbl-b (setting [4]) was 1 to 5 nM each time. Also, the fold induction at 0.3 µM in assay [1] (setting [5]) is greater than 1.39; in assay [2] (setting [5]), greater than 15. For the same compound, the fold induction at 1 µM was greater than 1.39 in assay [1] (setting [6]), greater than 1.14 in assay [1] (setting [7]), greater than 15 in assay [2] (setting [8]) and greater than 0.66 in assay [2] (setting [9]). Also, the values for the fold induction at 3 µM in assay [1] (anti-CD3 alone) and in assay [2] (anti-CD3 alone) were greater than 1.14 and greater than 0.66, respectively.

For the compound `Cn1cnnc1CC1(c2cccc(N3Cc4c(cc(CN5CCCC(C)(F)C5)cc4C(F)(F)F)C3=O)c2)COC1` (stereo in doubt) [Compound 5, (R)-6-((3-fluoro-3-methylpiperidin-1-yl)methyl)-2-(3-(3-((4-methyl-4H-1,2,4-triazol-3-yl)methyl)oxetan-3-yl)phenyl)-4-(trifluoromethyl) isoindolin-1-one], at Cbl-b (setting [10]), the half-inhibitory concentration (IC50) lay in the range of 5.1 to 100 nM. In addition, the fold induction at 0.3 µM is greater than 1.39 in assay [1] (setting [5]) and 11 to 15 in assay [2] (setting [5]). The fold induction at 1 µM in assay [1] (setting [6]) was greater than 1.39; in assay [1] (setting [7]) it was greater than 1.14; in assay [2] (setting [8]) it was greater than 15; in assay [2] (setting [9]), less than 0.33. For the same compound, the values for the fold induction at 3 µM in assay [1] (anti-CD3 alone) and in assay [2] (anti-CD3 alone) were greater than 1.14 and 0.34 to 0.66, respectively.

Take `CC1CN(Cc2cc3c(c(C(F)(F)F)c2)CN(c2cccc(C4([C@H](F)c5nncn5C)CC4)c2)C3=O)CCC1(F)F` (stereo partly drawn) [Compound 25, 6-((4,4-difluoro-3-methylpiperidin-1-yl)methyl)-2-(3-(1-((S)-fluoro(4-methyl-4H-1,2,4-triazol-3-yl)methyl)cyclopropyl)phenyl)-4-(trifluoromethyl)isoindolin-1-one]: the half-inhibitory concentration (IC50) at Cbl-b (setting [3]) and on Cbl-b (setting [4]) was 1 to 5 nM in each case.

Consider `CC1CN(Cc2cc3c(c(C(F)(F)F)c2)CN(c2cccc(C4(Cc5nncn5C)CC4)c2)C3=O)CCC1(F)F` (stereo not shown) [Compound 24, 6-((4,4-difluoro-3-methylpiperidin-1-yl)methyl)-2-(3-(1-((4-methyl-4H-1,2,4-triazol-3-yl)methyl)cyclopropyl)phenyl)-4-(trifluoromethyl)isoindolin-1-one], for which the IC50 on Cbl-b (setting [3]) and at Cbl-b (setting [4]) was less than 1 nM in each case.

With `CC1CN(Cc2cc3c(c(C(F)(F)F)c2)CN(c2cccc(C4([C@@H](F)c5nncn5C)CC4)c2)C3=O)CCC1(F)F` (stereo partly drawn) [Compound 26, 6-((4,4-difluoro-3-methylpiperidin-1-yl)methyl)-2-(3-(1-((R)-fluoro(4-methyl-4H-1,2,4-triazol-3-yl)methyl)cyclopropyl)phenyl)-4-(trifluoromethyl)isoindolin-1-one], the IC50 at Cbl-b (setting [3]) and on Cbl-b (setting [4]) was 1 to 5 nM in each case.

With `Cn1cnnc1CC1(c2cccc(N3Cc4c(cc(CN5C[C@@H](C(F)(F)F)C[C@H](C(F)(F)F)C5)cc4C(F)(F)F)C3=O)c2)COC1` (relative stereo) [Compound 20, trans-6-{[3,5-bis(trifluoromethyl)piperidin-1-yl]methyl}-2-(3-{3-[(4-methyl-1,2,4-triazol-3-yl)methyl]oxetan-3-yl}phenyl)-4-(trifluoromethyl)-3H-isoindol-1-one], on Cbl-b (setting [10]), the IC50 is 1 to 5 nM.

As a reminder, the IC50 is the midpoint of a concentration-inhibition curve.
